Measurements published in patent publication US20120178738A1, “DIBENZO [B,F] [1,4]OXAZAPINE COMPOUNDS” (ARYX THERAPEUTICS, INC., priority 2007, published 2012).
pKi: −log10 of the molar value. Like-named read-outs stand apart in the source and are kept apart here.

Assays:
human 5HT7 receptors = biological target: T1, human 5HT7 receptors (Homo sapiens, UniProt P34969); assay: h5-HT7 receptor radioligand binding ([3H]5-CT); conditions: for Ki: pKi reported on a scale of 1 through 5, read-out: 5HT7 (pKi) (converted)
T1 construct: expressed in transfected cells; host or cells: Chinese hamster ovary cells (membranes)
T1 sequence (P34969 whole entry): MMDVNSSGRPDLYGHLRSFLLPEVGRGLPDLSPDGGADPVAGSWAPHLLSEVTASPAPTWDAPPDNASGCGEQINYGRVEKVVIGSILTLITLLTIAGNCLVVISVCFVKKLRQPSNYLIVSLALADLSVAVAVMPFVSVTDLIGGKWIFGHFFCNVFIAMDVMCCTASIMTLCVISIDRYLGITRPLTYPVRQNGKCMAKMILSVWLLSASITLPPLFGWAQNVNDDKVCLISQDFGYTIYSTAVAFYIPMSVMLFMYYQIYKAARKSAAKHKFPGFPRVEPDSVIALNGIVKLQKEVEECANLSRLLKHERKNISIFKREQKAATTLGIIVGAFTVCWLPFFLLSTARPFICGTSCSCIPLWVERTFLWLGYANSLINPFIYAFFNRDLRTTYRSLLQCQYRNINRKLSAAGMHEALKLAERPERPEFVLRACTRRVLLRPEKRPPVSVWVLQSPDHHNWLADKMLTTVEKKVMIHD
Experimental: (§1) Consistent with standard competition radioligand binding assays, the methodology was based on displacement of radioligand from tissues (or cell lines) bearing the receptor of interest (Cheng, Y. and Prusoff, W. H. (1973). Biochem. Pharmacol. 22, 3099-3108). The measurements were based on the binding of a single concentration of radiolabeled ligand in the presence of various concentrations of unlabeled ligand.
(§2) Tissues (or cellular plasma membrane fractions) were incubated in the presence of radioligand at equilibrium and in the presence of a range of concentrations of the test compounds (which were non-radiolabeled), and the displaced radioligand was separated from the membranes by filtration. Nonspecific binding was assessed by measuring displacement of the radioligand in the presence of a compound known to block binding of the radioligand to the receptor. Finally, the concentration-response relationship for radioligand displacement (corrected for non-specific binding) was used to assess binding of the test compound to the receptor.

human 5HT1A receptors = biological target: T2, human 5HT1A receptors (Homo sapiens, UniProt P08908); assay: h5-HT1A receptor radioligand binding ([3H]8OH-DPAT); conditions: pKi reported on a scale of 1 through 5
T2 construct: expressed in transfected cells; host or cells: Chinese hamster ovary cells (membranes)
T2 sequence (P08908 1-422): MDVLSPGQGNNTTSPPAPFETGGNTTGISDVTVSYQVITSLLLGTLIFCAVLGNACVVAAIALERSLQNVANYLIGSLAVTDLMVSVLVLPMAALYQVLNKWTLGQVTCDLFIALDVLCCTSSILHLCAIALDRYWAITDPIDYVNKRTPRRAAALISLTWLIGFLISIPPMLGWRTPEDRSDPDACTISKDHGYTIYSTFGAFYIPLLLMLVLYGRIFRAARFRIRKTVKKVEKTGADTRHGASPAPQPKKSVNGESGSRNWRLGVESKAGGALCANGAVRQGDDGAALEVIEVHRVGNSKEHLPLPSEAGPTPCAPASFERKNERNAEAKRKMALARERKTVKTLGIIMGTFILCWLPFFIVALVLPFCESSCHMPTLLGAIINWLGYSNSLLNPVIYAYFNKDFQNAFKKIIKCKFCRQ
Outline: (§3)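 Test compounds compete with a single concentration of radioligand for receptor sites on tissue or membrane fractions under equilibrium incubation. Filtration separates displaced ligand, and nonspecific binding is set with a known receptor blocker.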

human 5HT2C receptors = biological target: T3, human 5HT2C receptors (Homo sapiens, UniProt P28335); assay: h5-HT2C receptor radioligand binding ([3H]Mesulergine); conditions: pKi reported on a scale of 1 through 5
T3 construct: expressed in transfected cells; host or cells: human embryo kidney cells (membranes)
T3 sequence (P28335 33-458): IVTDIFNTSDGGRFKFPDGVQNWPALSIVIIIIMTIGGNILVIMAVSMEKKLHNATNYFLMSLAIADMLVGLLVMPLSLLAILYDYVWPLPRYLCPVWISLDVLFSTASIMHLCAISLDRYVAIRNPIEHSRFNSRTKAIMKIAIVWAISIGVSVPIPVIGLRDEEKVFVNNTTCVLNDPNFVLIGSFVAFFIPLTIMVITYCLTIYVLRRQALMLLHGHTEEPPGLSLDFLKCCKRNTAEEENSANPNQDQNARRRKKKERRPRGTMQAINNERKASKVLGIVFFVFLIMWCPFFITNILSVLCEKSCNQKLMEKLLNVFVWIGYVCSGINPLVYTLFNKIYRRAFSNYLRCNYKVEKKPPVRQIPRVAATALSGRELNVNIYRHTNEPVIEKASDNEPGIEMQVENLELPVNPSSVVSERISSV
Outline: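 Competition binding: membranes incubated to equilibrium with a single concentration of [3H]mesulergine and a range of unlabeled test compound concentrations, then filtered. Nonspecific binding defined with a known receptor blocker; displacement concentration-response, corrected for nonspecific binding, gave the affinity measure.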

human M3 receptors = biological target: T4, human M3 receptors (Homo sapiens, UniProt P20309); assay: hM3 receptor radioligand binding ([3H]NMS); conditions: for Ki: pKi reported on a scale of 1 through 5, read-out: M3 (pKi) (converted)
T4 construct: expressed in transfected cells; host or cells: Chinese hamster ovary cells (membranes)
T4 sequence (P20309 whole entry): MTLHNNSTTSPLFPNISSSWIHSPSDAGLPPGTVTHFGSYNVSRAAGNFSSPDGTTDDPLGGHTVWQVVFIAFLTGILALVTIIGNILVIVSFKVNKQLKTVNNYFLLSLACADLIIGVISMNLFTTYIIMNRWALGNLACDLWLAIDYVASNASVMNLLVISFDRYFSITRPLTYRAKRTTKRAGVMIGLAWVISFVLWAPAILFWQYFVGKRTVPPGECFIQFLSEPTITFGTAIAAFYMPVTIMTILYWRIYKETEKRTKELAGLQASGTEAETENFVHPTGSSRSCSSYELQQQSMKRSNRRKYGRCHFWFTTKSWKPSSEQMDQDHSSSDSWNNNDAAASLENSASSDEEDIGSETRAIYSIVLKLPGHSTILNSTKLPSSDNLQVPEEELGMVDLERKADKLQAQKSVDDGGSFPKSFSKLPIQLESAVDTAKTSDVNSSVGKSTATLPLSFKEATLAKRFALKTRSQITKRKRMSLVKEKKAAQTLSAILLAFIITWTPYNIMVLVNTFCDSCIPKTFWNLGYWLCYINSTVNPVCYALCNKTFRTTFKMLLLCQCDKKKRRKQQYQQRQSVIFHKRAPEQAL
Experimental: as §1, §2

human M1 receptors = biological target: T5, human M1 receptors (Homo sapiens, UniProt P11229); assay: hM1 receptor radioligand binding ([3H]NMS); conditions: pKi reported on a scale of 1 through 5
T5 construct: expressed in transfected cells; host or cells: Chinese hamster ovary cells (membranes)
T5 sequence (P11229 1-460): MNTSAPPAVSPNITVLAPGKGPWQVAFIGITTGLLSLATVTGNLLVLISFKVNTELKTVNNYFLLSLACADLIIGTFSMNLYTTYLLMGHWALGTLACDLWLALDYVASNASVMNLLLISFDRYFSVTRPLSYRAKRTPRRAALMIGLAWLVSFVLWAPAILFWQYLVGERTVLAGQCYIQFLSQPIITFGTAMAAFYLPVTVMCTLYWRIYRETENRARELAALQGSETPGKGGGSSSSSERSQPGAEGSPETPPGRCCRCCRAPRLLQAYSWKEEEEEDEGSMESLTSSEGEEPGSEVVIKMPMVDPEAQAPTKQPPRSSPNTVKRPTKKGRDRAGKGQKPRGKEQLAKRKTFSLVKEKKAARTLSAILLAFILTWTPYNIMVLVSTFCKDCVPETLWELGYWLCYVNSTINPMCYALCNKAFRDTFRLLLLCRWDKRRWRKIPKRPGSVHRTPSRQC
Outline: as §3

5-HT2A receptor = biological target: T6, 5-HT2A receptor (Rattus norvegicus, UniProt P14842); assay: cell-based
T6 construct: Eight strips of tissue (0.5 cm long) were cut. and were mounted in 10 ml organ baths; tissue Charles River Laboratories; host or cells: rat aorta strips, endothelium removed
T6 sequence (P14842 whole entry): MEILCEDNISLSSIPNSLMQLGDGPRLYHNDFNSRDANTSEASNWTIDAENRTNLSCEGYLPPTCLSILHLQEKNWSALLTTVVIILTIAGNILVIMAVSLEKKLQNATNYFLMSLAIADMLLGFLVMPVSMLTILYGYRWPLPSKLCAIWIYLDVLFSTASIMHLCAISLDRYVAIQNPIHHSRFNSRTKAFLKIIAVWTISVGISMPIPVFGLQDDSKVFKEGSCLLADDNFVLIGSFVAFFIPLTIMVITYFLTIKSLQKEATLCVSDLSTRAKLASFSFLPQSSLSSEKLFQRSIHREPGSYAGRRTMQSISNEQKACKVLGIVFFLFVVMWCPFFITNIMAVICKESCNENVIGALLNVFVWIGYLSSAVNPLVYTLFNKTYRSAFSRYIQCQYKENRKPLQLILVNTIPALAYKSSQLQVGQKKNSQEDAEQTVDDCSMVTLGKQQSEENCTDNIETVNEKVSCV
Outline: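 Endothelium-denuded aortic strips from male Sprague Dawley rats held at 37° C in carbogen-aerated Krebs, pH 7.4, under 2 g resting tension. Contraction recorded as tension change, expressed as % of maximal 5-HT response; agonist EC50 from Parker–Waud fit, antagonist pKB/pA2 from concentration-ratios.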

[1] = biological target: T7, human D2s dopamine receptors (Homo sapiens, UniProt P14416); assay: hD2S receptor radioligand binding ([3H]spiperone); conditions: pKi reported on a scale of 1 through 5
T7 construct: expressed in transfected cells; host or cells: Chinese hamster ovary cells (membranes)
T7 sequence (P14416 1-414 isoform P14416-2): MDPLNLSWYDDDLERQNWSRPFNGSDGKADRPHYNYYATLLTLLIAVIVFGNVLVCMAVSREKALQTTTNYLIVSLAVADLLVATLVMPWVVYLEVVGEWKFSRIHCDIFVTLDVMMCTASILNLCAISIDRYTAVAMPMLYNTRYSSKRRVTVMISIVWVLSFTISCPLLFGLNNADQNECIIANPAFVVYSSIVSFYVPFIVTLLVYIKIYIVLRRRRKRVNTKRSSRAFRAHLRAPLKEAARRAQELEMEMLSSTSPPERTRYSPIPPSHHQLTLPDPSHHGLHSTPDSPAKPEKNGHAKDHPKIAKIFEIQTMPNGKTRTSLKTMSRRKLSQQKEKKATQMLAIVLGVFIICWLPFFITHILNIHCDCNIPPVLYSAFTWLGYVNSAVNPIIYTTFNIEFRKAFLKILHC
Outline: as §3

human H1 receptors = biological target: T8, human H1 receptors (Homo sapiens, UniProt P35367); assay: hH1 receptor radioligand binding ([3H]Pyrilamine); conditions: pKi reported on a scale of 1 through 5
T8 construct: expressed in transfected cells; host or cells: Chinese hamster ovary cells (membranes)
T8 sequence (P35367 whole entry): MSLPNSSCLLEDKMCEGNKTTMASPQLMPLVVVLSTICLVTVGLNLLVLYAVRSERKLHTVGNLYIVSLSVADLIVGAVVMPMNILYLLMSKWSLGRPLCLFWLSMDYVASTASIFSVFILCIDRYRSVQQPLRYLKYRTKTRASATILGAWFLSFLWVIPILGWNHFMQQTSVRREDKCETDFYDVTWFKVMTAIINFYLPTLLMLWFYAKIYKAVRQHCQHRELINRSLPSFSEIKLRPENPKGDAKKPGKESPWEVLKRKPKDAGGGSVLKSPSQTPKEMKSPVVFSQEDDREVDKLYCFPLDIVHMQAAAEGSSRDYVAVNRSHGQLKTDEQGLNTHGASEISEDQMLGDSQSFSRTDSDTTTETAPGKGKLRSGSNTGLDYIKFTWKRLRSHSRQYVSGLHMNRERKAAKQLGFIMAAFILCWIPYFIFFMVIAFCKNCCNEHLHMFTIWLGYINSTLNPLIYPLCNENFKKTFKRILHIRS
Outline: as §3

[2] = biological target: T9, human D2L dopamine receptors (Homo sapiens, UniProt P14416); assay: hD2L receptor radioligand binding ([3H]spiperone); conditions: for Ki: pKi reported on a scale of 1 through 5, read-out: D2L (pKi) (converted)
T9 construct: expressed in transfected cells; host or cells: insect Sf9 cells (membranes)
T9 sequence (P14416 whole entry): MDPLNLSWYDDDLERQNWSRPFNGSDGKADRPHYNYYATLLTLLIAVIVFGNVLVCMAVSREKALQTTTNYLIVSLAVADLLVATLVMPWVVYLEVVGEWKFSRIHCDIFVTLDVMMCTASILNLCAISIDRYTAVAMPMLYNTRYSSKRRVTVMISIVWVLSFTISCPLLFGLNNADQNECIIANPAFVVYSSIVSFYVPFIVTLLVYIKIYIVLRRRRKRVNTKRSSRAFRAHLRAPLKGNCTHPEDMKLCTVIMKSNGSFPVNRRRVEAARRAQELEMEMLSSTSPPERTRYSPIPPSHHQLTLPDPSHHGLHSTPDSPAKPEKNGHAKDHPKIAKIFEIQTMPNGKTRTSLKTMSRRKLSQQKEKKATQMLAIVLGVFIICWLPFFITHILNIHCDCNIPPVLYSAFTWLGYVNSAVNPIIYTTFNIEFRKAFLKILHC
Experimental: as §1, §2

[3] = read-out: 5HT2A (pKb) (converted)

Work on COCCCNC(=O)C[C@H]1CN(C2=Nc3cc(Cl)ccc3Oc3ccccc32)CCN1 [GD, (S,E)-2-(4-(8-chlorodibenzo[b,f][1,4]oxazepin-11-yl)piperazin-2-yl)-N-(3-methoxypropyl)acetamide] yielded a Ki (human 5HT7 receptors) of 631 to 1550 nM, a pKi (human 5HT1A receptors) of 7.01 to 8.00 and a pKi (human 5HT2C receptors) of 7.01 to 8.00. For the same compound, the Ki (human M3 receptors) was over 10000 nM, the pKi (human M1 receptors) was under 5.00 and the Kb (5-HT2A receptor; [3]) was 10 to 30.9 nM. It also gave a pKi [1] of 5.61 to 6.20, a pKi (human H1 receptors) of 7.01 to 8.00 and a Ki [2] of 631 to 2450 nM.
With CN1CCN(C2=Nc3cc(Cl)ccc3Oc3ccccc32)C[C@@H]1CC(=O)OC1CCCC1 [DX, (S,E)-cyclopentyl 2-(4-(8-chlorodibenzo[b,f][1,4]oxazepin-11-yl)-1-methylpiperazin-2-yl)acetate] the Ki (human 5HT7 receptors) was over 10000 nM, the pKi (human 5HT1A receptors) was 5.01 to 6.00 and the pKi (human 5HT2C receptors) was 6.01 to 7.00. The Ki (human M3 receptors) was over 10000 nM, the pKi (human M1 receptors) was 5.01 to 5.30 and the Kb (5-HT2A receptor; [3]) was 10 to 30.9 nM. The pKi [1] was 5.01 to 5.60, the pKi (human H1 receptors) was 6.01 to 7.00 and the Ki [2] was 2510 to 9770 nM.
Compound O=C(C[C@H]1CN(C2=Nc3cc(Cl)ccc3Oc3ccccc32)CCN1)NCCCO [Compound FS, (S,E)-2-(4-(8-chlorodibenzo[b,f][1,4]oxazepin-11-yl)piperazin-2-yl)-N-(3-hydroxypropyl)acetamide] has a Ki (human 5HT7 receptors) of under 617 nM, a pKi (human 5HT1A receptors) of 7.01 to 8.00 and a pKi (human 5HT2C receptors) of 7.01 to 8.00. For the same compound, the Ki (human M3 receptors) was over 10000 nM, the pKi (human M1 receptors) was under 5.00 and the Kb (5-HT2A receptor; [3]) was 3.16 to 9.77 nM. For the same compound, the pKi [1] was 5.61 to 6.20, the pKi (human H1 receptors) was at least 8.01 and the Ki [2] was 631 to 2450 nM.
O=C(C[C@H]1CN(C2=Nc3cc(Cl)ccc3Oc3ccccc32)CCN1)NCC(O)C(F)(F)F (stereo partly drawn) [GF, 2-((S)-4-((E)-8-chlorodibenzo[b,f][1,4]oxazepin-11-yl)piperazin-2-yl)-N-(3,3,3-trifluoro-2-hydroxypropyl)acetamide] gave a Ki (human 5HT7 receptors) of 631 to 1550 nM, a pKi (human 5HT1A receptors) of 6.01 to 7.00 and a pKi (human 5HT2C receptors) of 7.01 to 8.00. It also gave a Ki (human M3 receptors) of over 10000 nM, a pKi (human M1 receptors) of under 5.00 and a Kb (5-HT2A receptor; [3]) of 10 to 30.9 nM. The pKi [1] was 5.61 to 6.20, the pKi (human H1 receptors) was 7.01 to 8.00 and the Ki [2] was 2510 to 9770 nM.
O=C(C[C@H]1CN(C2=Nc3cc(Cl)ccc3Oc3ccccc32)CCN1)O[C@H]1CN2CCC1CC2 [DT, (R)-quinuclidin-3-yl 2-((S)-4-((E)-8-chlorodibenzo[b,f][1,4]oxazepin-11-yl)piperazin-2-yl)acetate] showed a pKi (human 5HT7 receptors) of under 5.00, a pKi (human 5HT1A receptors) of 6.01 to 7.00 and a pKi (human 5HT2C receptors) of 6.01 to 7.00. For the same compound, the pKi (human M3 receptors) was under 5.00, the pKi (human M1 receptors) was 5.01 to 5.30 and the Kb (5-HT2A receptor) was over 100 nM. The pKi [1] was under 5.00, the pKi (human H1 receptors) was 5.01 to 6.00 and the pKi [2] was under 5.00.
